Assay results published in patent US8765166B2, “Drug delivery devices for delivery of ocular therapeutic agents” (Aerie Pharmaceuticals, Inc., priority 2010, dated 2014).
≈ marks a conversion by molar mass, not a printed value. Structures can show the parent of a compound that is named as a salt.

Legend:
physchem = details: for solubility: aqueous buffer
Description: The active agent may be any active agent suitable to treat the desired condition. […] Examples include, but are not limited to, acetazolamide, dorzolamide HCl, timolol maleate, and ethacrynic acid sodium salt.

[1] = topical ocular use; cited from earlier work

solubility class (physchem) | solubility (physchem) | Compound | also measured
high solubility | > 1000 µg/mL | C=C(CC)C(=O)c1ccc(OCC(=O)O)c(Cl)c1Cl [ethacrynic acid sodium salt] | 
low solubility | < 300 µg/mL | CC(C)OC(=O)CCC/C=C\C[C@@H]1[C@@H](CC[C@@H](O)CCc2ccccc2)[C@H](O)C[C@@H]1O [latanoprost isopropyl ester] | topical effective concentration [1]: 0.05 milligrams/mL
 | < 300 µg/mL | CC[C@H](C)C(=O)O[C@H]1C[C@@H](C)C=C2C=C[C@H](C)[C@H](CC[C@@H]3C[C@@H](O)CC(=O)O3)[C@H]21 [lovastatin] | 
high solubility | > 1000 µg/mL | CC(C)(C)NC[C@H](O)COc1nsnc1N1CCOCC1 [timolol maleate] | 
low solubility | < 300 µg/mL | CC(C)OC(=O)CCC/C=C\C[C@@H]1[C@@H](/C=C/[C@@H](O)COc2cccc(C(F)(F)F)c2)[C@H](O)C[C@@H]1O [travoprost isopropyl ester] | 

Second part, the compound before the results:

Compound | solubility class (physchem) | solubility (physchem) | also measured
O=C(O)CCCCCC[C@@H]1[C@@H](CC[C@@H](O)c2cc3ccccc3s2)[C@H](O)C[C@@H]1O [AR-102 free acid, 7-((1R,2R,3R,5S)-2-((R)-3-(benzo[b]thiophen-2-yl)-3-hydroxypropyl)-3,5-dihydroxycyclopentyl)heptanoic acid] | moderate solubility |  | 
C[C@@H](N)c1ccc(C(=O)Nc2ccnc3[nH]ccc23)cc1 [Y-39983 Free Base] | Moderately Soluble |  | 
CC(=O)Nc1nnc(S(N)(=O)=O)s1 [acetazolamide] |  | > 1000 µg/mL | 
CCNC(=O)CCC/C=C\C[C@@H]1[C@@H](/C=C/[C@@H](O)CCc2ccccc2)[C@H](O)C[C@@H]1O [bimatoprost] | low solubility |  | 
Brc1c(NC2=NCCN2)ccc2nccnc12 [brimonidine free base] |  |  | solubility in PBS (physchem): 360 µg/mL (≈ 1230 µM)
C[C@@H]1C[C@H]2[C@@H]3CCC4=CC(=O)C=C[C@]4(C)[C@@]3(F)[C@@H](O)C[C@]2(C)[C@@]1(O)C(=O)COP(=O)(O)O [dexamethasone sodium phosphate] | high solubility |  | 
C[C@@H]1C[C@H]2[C@@H]3CCC4=CC(=O)C=C[C@]4(C)[C@@]3(F)[C@@H](O)C[C@]2(C)[C@@]1(O)C(=O)CO [dexamethasone] | low solubility | < 300 µg/mL | 
CCN[C@H]1C[C@H](C)S(=O)(=O)c2sc(S(N)(=O)=O)cc21 [dorzolamide HCl] | high solubility | > 1000 µg/mL | 
O=C(O)CCC/C=C\C[C@@H]1[C@@H](CC[C@@H](O)CCc2ccccc2)[C@H](O)C[C@@H]1O [latanoprost free acid] |  |  | solubility in PBS (physchem): 800 µg/mL (≈ 2050 µM)
brimonidine tartrate |  |  | solubility class (physchem; PBS at pH=7.2-7.4, listed as brimonidine D-tartrate salt): high solubility; solubility in water (physchem; in water at pH 7.7): 600 µg/mL
